Patent US10206394B2, “Herbicidal compounds” (Syngenta Participations AG, priority 2014, dated 2019)
Like-named read-outs stand apart in the source and are kept apart here.

What was measured:
Test in all cases: Glasshouse assay for herbicidal activity (pre- and post-emergence), percentage phytotoxicity
Format in all cases: in vivo
[1] = tested on: Alopecurus myosuroides (ALOMY); details: Alopecurus myosuroides
Procedure, shortened: (§1)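 Damage was rated visually as percent phytotoxicity, 100% meaning total kill, 20 days after pre-emergence application (made one day post-sowing) or 15 days after post-emergence application (made about 12 days post-sowing). Plants were grown under 16 h light, 65% humidity, warm species 24/18° C, cool 20/16° C.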

Avena fatua (AVEFA) = details: Avena fatua
Procedure, shortened: as §1

[2] = tested on: Echinochloa crus-galli (ECHCG); details: Echinochloa crus-galli
Procedure, shortened: as §1

Lolium perenne (LOLPE) = details: Lolium perenne
Procedure, shortened: as §1

[3] = post-emergence, 360 h, POST-emergence, rate 250 g/ha, visual score 15 DAA (100%=total damage, 0%=no damage), read-out: Post-emergence herbicidal activity (percentage phytotoxicity) ALOMY POST
[4] = pre-emergence, 480 h, PRE-emergence, rate 250 g/ha, visual score 20 DAA (100%=total damage, 0%=no damage), read-out: Pre-emergence herbicidal activity (percentage phytotoxicity) ALOMY PRE
[5] = post-emergence, 360 h, POST-emergence, rate 250 g/ha, visual score 15 DAA (100%=total damage, 0%=no damage), read-out: Post-emergence herbicidal activity (percentage phytotoxicity) AVEFA POST
[6] = pre-emergence, 480 h, PRE-emergence, rate 250 g/ha, visual score 20 DAA (100%=total damage, 0%=no damage), read-out: Pre-emergence herbicidal activity (percentage phytotoxicity) AVEFA PRE
[7] = post-emergence, 360 h, POST-emergence, rate 250 g/ha, visual score 15 DAA (100%=total damage, 0%=no damage), read-out: Post-emergence herbicidal activity (percentage phytotoxicity) ECHCG POST
[8] = pre-emergence, 480 h, PRE-emergence, rate 250 g/ha, visual score 20 DAA (100%=total damage, 0%=no damage), read-out: Pre-emergence herbicidal activity (percentage phytotoxicity) ECHCG PRE
[9] = post-emergence, 360 h, POST-emergence, rate 250 g/ha, visual score 15 DAA (100%=total damage, 0%=no damage), read-out: Post-emergence herbicidal activity (percentage phytotoxicity) LOLPE POST
[10] = pre-emergence, 480 h, PRE-emergence, rate 250 g/ha, visual score 20 DAA (100%=total damage, 0%=no damage), read-out: Pre-emergence herbicidal activity (percentage phytotoxicity) LOLPE PRE

Row | Structure (SMILES) | pest or weed control at 250 g/ha [1, 3] [%] | pest or weed control at 250 g/ha [1, 4] [%] | pest or weed control at 250 g/ha (Avena fatua (AVEFA); [5]) [%] | pest or weed control at 250 g/ha (Avena fatua (AVEFA); [6]) [%] | pest or weed control at 250 g/ha [2, 7] [%] | pest or weed control at 250 g/ha [2, 8] [%] | pest or weed control at 250 g/ha (Lolium perenne (LOLPE); [9]) [%] | pest or weed control at 250 g/ha (Lolium perenne (LOLPE); [10]) [%] | further results
1 | COc1ccccc1CNC(=O)CC1CC(=O)C(c2c(C)cc(-c3ncc(Cl)cc3F)cc2C)C1=O (stereo not drawn) [Compound A126] |  |  |  |  |  |  |  |  | pest or weed control at 250 g/ha ([1]; post-emergence, 360 h, Rate 250 g/ha, post-emergence, assessed visually 15 DAA, 100%=total damage, 0%=no damage, read-out: Post-emergence herbicidal activity (percentage phytotoxicity) ALOMY POST): 30%; pest or weed control at 250 g/ha ([1]; pre-emergence, 480 h, Rate 250 g/ha, pre-emergence, assessed visually 20 DAA, 100%=total damage, 0%=no damage, read-out: Pre-emergence herbicidal activity (percentage phytotoxicity) ALOMY PRE): 30%; pest or weed control at 250 g/ha (Avena fatua (AVEFA); post-emergence, 360 h, Rate 250 g/ha, post-emergence, assessed visually 15 DAA, 100%=total damage, 0%=no damage, read-out: Post-emergence herbicidal activity (percentage phytotoxicity) AVEFA POST): 90%; pest or weed control at 250 g/ha (Avena fatua (AVEFA); pre-emergence, 480 h, Rate 250 g/ha, pre-emergence, assessed visually 20 DAA, 100%=total damage, 0%=no damage, read-out: Pre-emergence herbicidal activity (percentage phytotoxicity) AVEFA PRE): 50%; pest or weed control at 250 g/ha ([2]; post-emergence, 360 h, Rate 250 g/ha, post-emergence, assessed visually 15 DAA, 100%=total damage, 0%=no damage, read-out: Post-emergence herbicidal activity (percentage phytotoxicity) ECHCG POST): 100%; pest or weed control at 250 g/ha ([2]; pre-emergence, 480 h, Rate 250 g/ha, pre-emergence, assessed visually 20 DAA, 100%=total damage, 0%=no damage, read-out: Pre-emergence herbicidal activity (percentage phytotoxicity) ECHCG PRE): 100%; pest or weed control at 250 g/ha (Lolium perenne (LOLPE); post-emergence, 360 h, Rate 250 g/ha, post-emergence, assessed visually 15 DAA, 100%=total damage, 0%=no damage, read-out: Post-emergence herbicidal activity (percentage phytotoxicity) LOLPE POST): 80%; pest or weed control at 250 g/ha (Lolium perenne (LOLPE); pre-emergence, 480 h, Rate 250 g/ha, pre-emergence, assessed visually 20 DAA, 100%=total damage, 0%=no damage, read-out: Pre-emergence herbicidal activity (percentage phytotoxicity) LOLPE PRE): 80%
2 | Cc1cc(-n2cc(Cl)cn2)cc(C)c1C1C(=O)CC(CC(=O)NCC2CC2)C1=O (stereo not drawn) [Compound B227] | 100 | 80 | 100 | 80 | 100 | 80 | 90 | 80 | 
3 | CNC(=O)CC1CC(=O)C(c2c(C)cc(-c3ncc(F)cc3F)cc2C)C1=O (stereo not drawn) [Compound B269] | 100 | 100 | 100 | 100 | 100 | 100 | 100 | 100 | 
4 | CCc1cc(OCC(F)(F)F)cc(C)c1C1C(=O)CC(CC(=O)N(C)CC)C1=O (stereo not drawn) [Compound B220] | 100 | 100 | 100 | 90 | 100 | 100 | 100 | 100 | 
5 | C#Cc1cccc(CNC(=O)CC2CC(=O)C(c3c(C)cc(C)cc3C)C2=O)c1 (stereo not drawn) [Compound B86] |  |  |  |  |  |  |  |  | pest or weed control at 250 g/ha ([1]; post-emergence, 360 h, 250 g/ha, post-emergence, 15 DAA, visual assessment (100%=total damage, 0%=no damage), read-out: Post-emergence herbicidal activity (percentage phytotoxicity) ALOMY POST): 70%; pest or weed control at 250 g/ha ([1]; pre-emergence, 480 h, 250 g/ha, pre-emergence, 20 DAA, visual assessment (100%=total damage, 0%=no damage), read-out: Pre-emergence herbicidal activity (percentage phytotoxicity) ALOMY PRE): 70%; pest or weed control at 250 g/ha (Avena fatua (AVEFA); post-emergence, 360 h, 250 g/ha, post-emergence, 15 DAA, visual assessment (100%=total damage, 0%=no damage), read-out: Post-emergence herbicidal activity (percentage phytotoxicity) AVEFA POST): 100%; pest or weed control at 250 g/ha (Avena fatua (AVEFA); pre-emergence, 480 h, 250 g/ha, pre-emergence, 20 DAA, visual assessment (100%=total damage, 0%=no damage), read-out: Pre-emergence herbicidal activity (percentage phytotoxicity) AVEFA PRE): 60%; pest or weed control at 250 g/ha ([2]; post-emergence, 360 h, 250 g/ha, post-emergence, 15 DAA, visual assessment (100%=total damage, 0%=no damage), read-out: Post-emergence herbicidal activity (percentage phytotoxicity) ECHCG POST): 90%; pest or weed control at 250 g/ha ([2]; pre-emergence, 480 h, 250 g/ha, pre-emergence, 20 DAA, visual assessment (100%=total damage, 0%=no damage), read-out: Pre-emergence herbicidal activity (percentage phytotoxicity) ECHCG PRE): 80%; pest or weed control at 250 g/ha (Lolium perenne (LOLPE); post-emergence, 360 h, 250 g/ha, post-emergence, 15 DAA, visual assessment (100%=total damage, 0%=no damage), read-out: Post-emergence herbicidal activity (percentage phytotoxicity) LOLPE POST): 100%; pest or weed control at 250 g/ha (Lolium perenne (LOLPE); pre-emergence, 480 h, 250 g/ha, pre-emergence, 20 DAA, visual assessment (100%=total damage, 0%=no damage), read-out: Pre-emergence herbicidal activity (percentage phytotoxicity) LOLPE PRE): 90%
6 | COCC(C)(C)NC(=O)CC1CC(=O)C(c2c(C)cc(C)cc2C)C1=O (stereo not drawn) [Compound B180] | 90 | 90 | 90 | 60 | 90 | 90 | 80 | 90 | 
